Assay results reported in patent publication US11779628B2, “Use of cell-permeable peptide inhibitors of the JNK signal transduction pathway for the treatment of various diseases” (Xigen Inflammation Ltd., priority 2014, dated 2023).
Where two headings read alike, the source gives them in different places.

Test system: Sprague-Dawley albino rats, light-induced photoreceptor cell death
Assay type: in vivo
Conditions: Day 23
From the text: The aim of this study was to investigate the dose effect of XG-102 on light-induced photoreceptor cell death.
50 male Rat (Sprague-Dawley (albinos rat); approximately 8 weeks; 200-250 g (on ordering)) have been used. Rats are most commonly used in this experimental model. Animals were examined before study, and particular attention was paid to the eyes. Animals were held in observation for 2 weeks following their arrival. Animals were observed daily for signs of illness. Only healthy animals with no ocular abnormalities were accepted for use in experiments. Animals were housed individually in standard cages (420×270×190 mm)^ii. All animals were housed under identical environmental conditions. The temperature was held at 22±2° C. and the relative humidity at 55±10%. Rooms were continuously ventilated (15 times per hour). A cycle of 12 hours light (200-300 lx) and 12 hours darkness was automatically controlled. These parameters were continuously controlled and recorded. Throughout the study, animals had free access to food and water. They were fed a standard dry pellet diet. Tap water was available ad libitum from plastic bottles.
Forty-eight (48) rats were randomly divided into six (6) groups of eight (8) animals each. Test item (XG-102: 30 mg/ml, 3 mg/ml, and 0.3 mg/ml) and vehicle (0.9% NaCl) were administered by intravitreal injection in right eyes the day before induction. The reference (Phenyl-N-test-Butylnitrone (PBN) (50 mg/kg)) and vehicle were intraperitoneally injected 30 min before induction then, 3 times during 12 hours of light exposition, then once after induction. Animals were placed in constant light (7000 lux) for 24 h. Electroretinograms (ERG) were recorded before light treatment and on days 9, 16 and 23 after induction. Eyes were then taken for histology and outer nuclear layer (ONL) thickness assessment. The table below summarizes the allocation of animals in treatment groups:
For the intravitreal injection animals were anesthetized by intramuscular injection of a mixture of xylazine/ketamine. Test item (5 μl) and vehicle (5 μl) were injected in the right eye. The injection was performed under an operating microscope in the supratemporal area at pars plana using a 33G-needle mounted on a 50 μl Hamilton. The filled syringe was mounted into the UltraMicroPump III to achieve accurate injection in microliter range. Reference and vehicle were injected intraperitoneally at a dose volume of 2.5 ml/kg using a 30G-needle mounted on a 1 ml-syringe.
Light Exposure: The rats that had been dark-adapted overnight were exposed for 24 hours to a continuous white fluorescent light (7000 Ix) in clear plastic cages. Each cage contained one rat. After exposure, the rats returned to rearing cyclic light conditions.
ERG was recorded before induction and 7, 14 and 21 days after cessation of exposure (Days 9, 16 and 23) on right eyes of dark-adapted and anesthetized animals. The latency times (for a- and b-wave) and the a-wave and b-wave amplitudes were measured for each ERG; the latency times were expressed as millisecond and the a-wave and b-wave as a percentage of the baseline value obtained before light exposure. 15 min before measurement 10 μl Mydriaticum® (0.5% tropicamide) were instilled for pupillary dilatation.
ERG Parameters: • Color: white maximum. • Maximum intensity: 2.6 cd·s/m^2 (0 dB); Duration 0.24 ms; number of flash: 1. • Filter: 50 Hz. • Impedence Threshold: 90 kΩ.
Measurement of the ONL Thickness: After ERG testing, animal was euthanized by an overdose of pentobarbital and the right eyes were enucleated, fixed and embedded in paraffin. Sections (5 μm thick) were performed along the vertical meridian and stained with Trichrome-Masson. The vertical meridian included the optic nerve.
Group mean values and standard deviation were calculated. A statistical Mann and Whitney test was used to evaluate the differences between pair-wise groups. For comparison between time-point into each vehicle groups, a Friedman test was used. […]

Compound: CC(C)C[C@@H](NC(=O)[C@@H](Cc1ccccc1)NC(=O)[C@H]1CCCN1C(=O)[C@@H](CCC(N)=O)NC(=O)[C@H](NC(=O)[C@H]1CCCN1C(=O)[C@@H](CCCNC(=N)N)NC(=O)[C@@H](CO)NC(=O)[C@@H](CCC(N)=O)NC(=O)[C@H](N)CC(=O)O)C(C)C)C(=O)N[C@H](CC(N)=O)C(=O)N[C@H](CC(C)C)C(=O)N[C@@H](C(=O)N[C@@H](C(=O)N1CCC[C@@H]1C(=O)N[C@H](CCCNC(=N)N)C(=O)N[C@H](CCCCN)C(=O)N1CCC[C@@H]1C(=O)N[C@H](CCCNC(=N)N)C(=O)N1CCC[C@@H]1C(=O)N1CCC[C@@H]1C(=O)N[C@H](CCCNC(=N)N)C(=O)N[C@H](CCCNC(=N)N)C(=O)N[C@H](CCCNC(=N)N)C(=O)N[C@H](CCC(N)=O)C(=O)N[C@H](CCCNC(=N)N)C(=O)N[C@H](CCCNC(=N)N)C(=O)N[C@H](CCCCN)C(=O)N[C@H](CCCCN)C(=O)N[C@H](CCCNC(=N)N)C(=O)NCC(=O)O)[C@H](C)O)[C@H](C)O [XG-102]
- protection of ONL thickness (high dose XG-102): No protection was observed with high dose XG-102
- recovery of the a-wave (% of baseline) (low dose 1.5 μg/eye): 48.3%
- loss of the mean ONL thickness (low dose XG-102): 40%
- loss of the mean ONL thickness (mid dose XG-102): 40%
